ChEMBL document CHEMBL1240439, “Synthesis and docking studies of novel benzopyran-2-ones with anticancer activity” (2010)
Active and inactive are the calls of the source. No cut-off for these calls is given here.

How the values were obtained:
Assay type in all cases: functional
SN12C = assay: Cytotoxicity against human SN12C cells assessed as cell growth at 10 uM after 48 hrs by sulforhodamine B assay
HCT-15 = assay: Cytotoxicity against human HCT15 cells assessed as cell growth at 10 uM after 48 hrs by sulforhodamine B assay
786-0 = assay: Cytotoxicity against human 786-0 cells assessed as cell growth at 10 uM after 48 hrs by sulforhodamine B assay
OVCAR-5 = assay: Cytotoxicity against human OVCAR5 cells assessed as cell growth at 10 uM after 48 hrs by sulforhodamine B assay
MOLT-4 = assay: Cytotoxicity against human MOLT4 cells assessed as cell growth at 10 uM after 48 hrs by sulforhodamine B assay; details: for growth at 10 µM: MOLT-4, 48 h, read-out: Activity
A549 = assay: Cytotoxicity against human A549 cells assessed as cell growth at 10 uM after 48 hrs by sulforhodamine B assay
KM12 = assay: Cytotoxicity against human KM12 cells assessed as cell growth at 10 uM after 48 hrs by sulforhodamine B assay
MDA-MB-231 = assay: Cytotoxicity against human MDA-MB-231 cells assessed as cell growth at 10 uM after 48 hrs by sulforhodamine B assay
OVCAR-4 = assay: Cytotoxicity against human OVCAR4 cells assessed as cell growth at 10 uM after 48 hrs by sulforhodamine B assay
NCI-H322M = assay: Cytotoxicity against human NCI-H322M cells assessed as cell growth at 10 uM after 48 hrs by sulforhodamine B assay
SNB-75 = assay: Cytotoxicity against human SNB75 cells assessed as cell growth at 10 uM after 48 hrs by sulforhodamine B assay
EKVX = assay: Cytotoxicity against human EKVX cells assessed as cell growth at 10 uM after 48 hrs by sulforhodamine B assay
NCI-H23 = assay: Cytotoxicity against human NCI-H23 cells assessed as cell growth at 10 uM after 48 hrs by sulforhodamine B assay
HL-60(TB) = assay: Cytotoxicity against human HL-60(TB) cells assessed as cell growth at 10 uM after 48 hrs by sulforhodamine B assay
PC-3 = assay: Cytotoxicity against human PC3 cells assessed as cell growth at 10 uM after 48 hrs by sulforhodamine B assay
MDA-MB-468 = assay: Cytotoxicity against human MDA-MB-468 cells assessed as cell growth at 10 uM after 48 hrs by sulforhodamine B assay
HCC 2998 = assay: Cytotoxicity against human HCC2998 cells assessed as cell growth at 10 uM after 48 hrs by sulforhodamine B assay
IGROV-1 = assay: Cytotoxicity against human IGROV1 cells assessed as cell growth at 10 uM after 48 hrs by sulforhodamine B assay
U-251 = assay: Cytotoxicity against human U251 cells assessed as cell growth at 10 uM after 48 hrs by sulforhodamine B assay
UACC-257 = assay: Cytotoxicity against human UACC257 cells assessed as cell growth at 10 uM after 48 hrs by sulforhodamine B assay
SF-295 = assay: Cytotoxicity against human SF295 cells assessed as cell growth at 10 uM after 48 hrs by sulforhodamine B assay; details: for growth at 10 µM: SF-295, 48 h, read-out: Activity
NCI-H460 = assay: Cytotoxicity against human NCI-H460 cells assessed as cell growth at 10 uM after 48 hrs by sulforhodamine B assay
UACC-62 = assay: Cytotoxicity against human UACC62 cells assessed as cell growth at 10 uM after 48 hrs by sulforhodamine B assay; details: for growth at 10 µM: UACC-62, 48 h, read-out: Activity
HCT-116 = assay: Cytotoxicity against human HCT116 cells assessed as cell growth at 10 uM after 48 hrs by sulforhodamine B assay
T47D = assay: Cytotoxicity against human T47D cells assessed as cell growth at 10 uM after 48 hrs by sulforhodamine B assay
ACHN = assay: Cytotoxicity against human ACHN cells assessed as cell growth at 10 uM after 48 hrs by sulforhodamine B assay
A498 = assay: Cytotoxicity against human A498 cells assessed as cell growth at 10 uM after 48 hrs by sulforhodamine B assay
CCRF-CEM = assay: Cytotoxicity against human CCRF-CEM cells assessed as cell growth at 10 uM after 48 hrs by sulforhodamine B assay
UO-31 = assay: Cytotoxicity against human UO31 cells assessed as cell growth at 10 uM after 48 hrs by sulforhodamine B assay
RPMI-8226 = assay: Cytotoxicity against human RPMI8226 cells assessed as cell growth at 10 uM after 48 hrs by sulforhodamine B assay; details: for growth at 10 µM: RPMI-8226, 48 h, read-out: Activity
SK-OV-3 = assay: Cytotoxicity against human SKOV3 cells assessed as cell growth at 10 uM after 48 hrs by sulforhodamine B assay
COLO 205 = assay: Cytotoxicity against human COLO205 cells assessed as cell growth at 10 uM after 48 hrs by sulforhodamine B assay
NCI-H522 = assay: Cytotoxicity against human NCI-H522 cells assessed as cell growth at 10 uM after 48 hrs by sulforhodamine B assay
SK-MEL-28 = assay: Cytotoxicity against human SK-MEL-28 cells assessed as cell growth at 10 uM after 48 hrs by sulforhodamine B assay
HOP-92 = assay: Cytotoxicity against human HOP92 cells assessed as cell growth at 10 uM after 48 hrs by sulforhodamine B assay
OVCAR-3 = assay: Cytotoxicity against human OVCAR-3 cells assessed as cell growth at 10 uM after 48 hrs by sulforhodamine B assay
SF-268 = assay: Cytotoxicity against human SF268 cells assessed as cell growth at 10 uM after 48 hrs by sulforhodamine B assay
OVCAR-8 = assay: Cytotoxicity against human OVCAR8 cells assessed as cell growth at 10 uM after 48 hrs by sulforhodamine B assay
M14 = assay: Cytotoxicity against human M14 cells assessed as cell growth at 10 uM after 48 hrs by sulforhodamine B assay
K562 = assay: Cytotoxicity against human K562 cells assessed as cell growth at 10 uM after 48 hrs by sulforhodamine B assay; details: for growth at 10 µM: K562, 48 h, read-out: Activity
HT-29 = assay: Cytotoxicity against human HT-29 cells assessed as cell growth at 10 uM after 48 hrs by sulforhodamine B assay
NCI-H226 = assay: Cytotoxicity against human NCI-H226 cells assessed as cell growth at 10 uM after 48 hrs by sulforhodamine B assay
SNB-19 = assay: Cytotoxicity against human SNB19 cells assessed as cell growth at 10 uM after 48 hrs by sulforhodamine B assay
LOX IMVI = assay: Cytotoxicity against human LOXIMVI cells assessed as cell growth at 10 uM after 48 hrs by sulforhodamine B assay
Malme-3M = assay: Cytotoxicity against human MALME-3M cells assessed as cell growth at 10 uM after 48 hrs by sulforhodamine B assay
SR = assay: Cytotoxicity against human SR cells assessed as cell growth at 10 uM after 48 hrs by sulforhodamine B assay
SK-MEL-5 = assay: Cytotoxicity against human SK-MEL-5 cells assessed as cell growth at 10 uM after 48 hrs by sulforhodamine B assay
SK-MEL-2 = assay: Cytotoxicity against human SK-MEL-2 cells assessed as cell growth at 10 uM after 48 hrs by sulforhodamine B assay
MCF7 = assay: Cytotoxicity against human MCF7 cells assessed as cell growth at 10 uM after 48 hrs by sulforhodamine B assay
RXF 393 = assay: Cytotoxicity against human RXF393 cells assessed as cell growth at 10 uM after 48 hrs by sulforhodamine B assay
Hs-578T = assay: Cytotoxicity against human Hs 578T cells assessed as cell growth at 10 uM after 48 hrs by sulforhodamine B assay
HOP-62 = assay: Cytotoxicity against human HOP62 cells assessed as cell growth at 10 uM after 48 hrs by sulforhodamine B assay
TK-10 = assay: Cytotoxicity against human TK10 cells assessed as cell growth at 10 uM after 48 hrs by sulforhodamine B assay
BT-549 = assay: Cytotoxicity against human BT549 cells assessed as cell growth at 10 uM after 48 hrs by sulforhodamine B assay
SW-620 = assay: Cytotoxicity against human SW620 cells assessed as cell growth at 10 uM after 48 hrs by sulforhodamine B assay
SF-539 = assay: Cytotoxicity against human SF539 cells assessed as cell growth at 10 uM after 48 hrs by sulforhodamine B assay
DU-145 = assay: Cytotoxicity against human DU145 cells assessed as cell growth at 10 uM after 48 hrs by sulforhodamine B assay
MDA-MB-435 = assay: Cytotoxicity against human MDA-MB-435 cells assessed as cell growth at 10 uM after 48 hrs by sulforhodamine B assay

Cc1cc(C)n(C(=O)COc2ccc3c(-c4ccccc4)cc(=O)oc3c2C)n1
Activity (SN12C): inactive | Activity (HCT-15): inactive | Activity (786-0): inactive | Activity (OVCAR-5): inactive | Activity (MOLT-4): inactive | Activity (A549): inactive | Activity (KM12): inactive | Activity (MDA-MB-231): inactive | Activity (OVCAR-4): inactive | Activity (NCI-H322M): inactive | Activity (SNB-75): inactive | Activity (EKVX): inactive | Activity (NCI-H23): inactive | Activity (HL-60(TB)): inactive | Activity (PC-3): inactive | Activity (MDA-MB-468): inactive | Activity (HCC 2998): inactive | Activity (IGROV-1): inactive | Activity (U-251): inactive | Activity (UACC-257): inactive | Activity (SF-295): inactive | Activity (NCI-H460): inactive | Activity (UACC-62): inactive | Activity (HCT-116): inactive | Activity (T47D): inactive | Activity (ACHN): inactive | Activity (A498): inactive | Activity (CCRF-CEM): inactive | Activity (UO-31): inactive | Activity (RPMI-8226): inactive | Activity (SK-OV-3): inactive | Activity (COLO 205): inactive | Activity (NCI-H522): inactive | Activity (SK-MEL-28): inactive | Activity (HOP-92): inactive | Activity (OVCAR-3): inactive | Activity (SF-268): inactive | Activity (OVCAR-8): inactive | Activity (M14): inactive | Activity (K562): inactive | Activity (HT-29): inactive | Activity (NCI-H226): inactive | Activity (SNB-19): inactive | Activity (LOX IMVI): inactive | Activity (Malme-3M): inactive | Activity (SR): inactive | Activity (SK-MEL-5): inactive | Activity (SK-MEL-2): inactive | Activity (MCF7): inactive | Activity (RXF 393): inactive | Activity (Hs-578T): inactive | Activity (HOP-62): inactive | Activity (TK-10): inactive | Activity (BT-549): inactive | Activity (SW-620): inactive | Activity (SF-539): inactive | Activity (DU-145): inactive | Activity (MDA-MB-435): inactive

Cc1c(OCc2nnc(-c3ccccc3)o2)ccc2c(-c3ccccc3)cc(=O)oc12
growth at 10 µM (RPMI-8226): 47.5%

Cc1c(OCc2nnc(S)o2)ccc2c(-c3ccccc3)cc(=O)oc12
Activity (SN12C): inactive | Activity (HCT-15): inactive | Activity (786-0): inactive | Activity (OVCAR-5): inactive | Activity (MOLT-4): inactive | Activity (A549): inactive | Activity (KM12): inactive | Activity (MDA-MB-231): inactive | Activity (OVCAR-4): inactive | Activity (NCI-H322M): inactive | Activity (SNB-75): inactive | Activity (EKVX): inactive | Activity (NCI-H23): inactive | Activity (HL-60(TB)): inactive | Activity (PC-3): inactive | Activity (MDA-MB-468): inactive | Activity (HCC 2998): inactive | Activity (IGROV-1): inactive | Activity (U-251): inactive | Activity (UACC-257): inactive | Activity (SF-295): inactive | Activity (NCI-H460): inactive | Activity (UACC-62): inactive | Activity (HCT-116): inactive | Activity (T47D): inactive | Activity (ACHN): inactive | Activity (A498): inactive | Activity (CCRF-CEM): inactive | Activity (UO-31): inactive | Activity (RPMI-8226): inactive | Activity (SK-OV-3): inactive | Activity (COLO 205): inactive | Activity (NCI-H522): inactive | Activity (SK-MEL-28): inactive | Activity (HOP-92): inactive | Activity (OVCAR-3): inactive | Activity (SF-268): inactive | Activity (OVCAR-8): inactive | Activity (M14): inactive | Activity (K562): inactive | Activity (HT-29): inactive | Activity (NCI-H226): inactive | Activity (SNB-19): inactive | Activity (LOX IMVI): inactive | Activity (Malme-3M): inactive | Activity (SR): inactive | Activity (SK-MEL-5): inactive | Activity (SK-MEL-2): inactive | Activity (MCF7): inactive | Activity (RXF 393): inactive | Activity (Hs-578T): inactive | Activity (HOP-62): inactive | Activity (TK-10): inactive | Activity (BT-549): inactive | Activity (SW-620): inactive | Activity (SF-539): inactive | Activity (DU-145): inactive | Activity (MDA-MB-435): inactive

CCCc1cc(=O)oc2c(C)c(OCc3nnc(SC)o3)ccc12
growth at 10 µM (SF-295): 21.9%

CCCc1cc(=O)oc2cc(OCc3nnc(S)n3Cc3ccccc3)ccc12
growth at 10 µM (MOLT-4): 58.7% | growth at 10 µM (OVCAR-4; OVCAR-4, 48 h, read-out: Activity): 48.7% | growth at 10 µM (EKVX; read-out: Activity): 57.7% | growth at 10 µM (HL-60(TB); HL-60, 48 h, read-out: Activity): 59.7% | growth at 10 µM (SF-295): 53% | growth at 10 µM (UACC-62): 59.7% | growth at 10 µM (T47D; read-out: Activity): 50.7% | growth at 10 µM (RPMI-8226): 37.3% | growth at 10 µM (K562): 46.9% | growth at 10 µM (SR; read-out: Activity): 57.6% | growth at 10 µM (SK-MEL-2; SK-MEL-2, 48 h, read-out: Activity): 53.4%

Cc1c(OCc2nnc(S)n2Cc2ccccc2)ccc2c(-c3ccccc3)cc(=O)oc12
growth at 10 µM (MOLT-4): 49% | growth at 10 µM (PC-3; PC-3, 48 h, read-out: Activity): 56.6% | growth at 10 µM (SF-295): 45.8% | growth at 10 µM (UACC-62): 59.9% | growth at 10 µM (RPMI-8226): 31.5% | growth at 10 µM (NCI-H522; NCI-H522, 48 h, read-out: Activity): 56.6% | growth at 10 µM (K562): 53.6% | growth at 10 µM (HT-29; HT-29, 48 h, read-out: Activity): 57.1%
